# Assay results: US10508109B2 (priority 2015, dated 2019)
# Like-named read-outs stand apart in the source and are kept apart here.
# Experiments:
# SUV39H2 = SUV39H2 (Homo sapiens (Human), UniProt Q9H5I1); details: read-out: IC50 (μM) Suv 39H2 assay; enzyme assay
# CCD-18Co = assay: Cell-based assay, anti-proliferative activity (Cell Counting Kit-8, 72 hours); details: Homo sapiens, read-out: IC50 (μM) CCD-18Co
# Summary of the method: (§1)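 IC50 values reflect cell growth measured by Cell Counting Kit-8 following 72 hours of inhibitor exposure across a twofold dilution range up to 100 micro-M.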
# HFL1 = assay: as above; details: Homo sapiens, read-out: IC50 (μM) HFL1
# Summary of the method: as §1
# PC14 = assay: as above; details: Homo sapiens, read-out: IC50 (μM) PC14
# Summary of the method: as §1
# HCT-116 = assay: as above; details: Homo sapiens, read-out: IC50 (μM) HCT-116
# Summary of the method: as §1
# A549 = assay: as above; details: Homo sapiens, read-out: IC50 (μM) A549
# Summary of the method: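 Following seeding into 96-well microtiter plates, the cells receive candidate inhibitors, and cellular growth is quantified at the end of the exposure period. An IC50 is computed for each compound.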
# [1] = CCD-18Co cells, Cell Counting Kit-8, 72 hours
# [2] = HFL1 cells, Cell Counting Kit-8, 72 hours
# [3] = PC-14, PC14 cells, Cell Counting Kit-8, 72 hours
# [4] = HCT-116 cells, Cell Counting Kit-8, 72 hours
# [5] = A549 cells, Cell Counting Kit-8, 72 hours
# Sequence of SUV39H2 (Q9H5I1 whole entry): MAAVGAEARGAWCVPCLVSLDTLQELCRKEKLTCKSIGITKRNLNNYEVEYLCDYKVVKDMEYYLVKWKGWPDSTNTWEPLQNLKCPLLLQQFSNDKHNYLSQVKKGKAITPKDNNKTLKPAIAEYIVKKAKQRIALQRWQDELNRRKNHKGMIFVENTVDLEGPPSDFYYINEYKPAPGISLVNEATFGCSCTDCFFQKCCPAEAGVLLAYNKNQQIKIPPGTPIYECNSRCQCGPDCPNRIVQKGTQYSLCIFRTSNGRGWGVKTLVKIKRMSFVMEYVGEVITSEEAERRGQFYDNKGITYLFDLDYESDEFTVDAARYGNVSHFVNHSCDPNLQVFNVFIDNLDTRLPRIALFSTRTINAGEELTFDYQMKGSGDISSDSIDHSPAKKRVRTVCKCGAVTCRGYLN
Compound,IC50 (SUV39H2),IC50 (CCD-18Co; [1]),IC50 (HFL1; [2]),IC50 (PC14; [3]),IC50 (HCT-116; [4]),IC50 (A549; [5]),"IC50 (CCD-18Co; CCD-18Co, 72 h)","IC50 (HFL1; HFL1, 72 h)","IC50 (PC14; PC-14, 72 h)","IC50 (HCT-116; HCT-116, 72 h)","IC50 (A549; A549, 72 h)"
"COc1cc(OCCCN(C)C)c(-c2cn3ccc(N4CCN(C(=O)C(C)(C)C)CC4)cc3n2)cc1Cl [Example 156, 1-(4-(2-(5-chloro-2-(3-(dimethylamino)propoxy)-4-methoxyphenyl)imidazo[1,2-a]pyridine-7-yl)piperazin-1-yl)-2,2-dimethylpropan-1-one]",0.0344 µM,7.2 µM,4.4 µM,5.8 µM,6.2 µM,6.3 µM,,,,,
"COc1cc(OC)c(-c2cn3ccc(NC(=O)CCNC(=O)OC(C)(C)C)cc3n2)cc1Cl [Example 157, tert-butyl (3-{[2-(5-chloro-2,4-dimethoxyphenyl)imidazo[1,2-a]pyridin-7-yl]amino}-3-oxopropyl)carbamate]",0.0628 µM,7.1 µM,4.7 µM,6.2 µM,6.8 µM,7.5 µM,,,,,
"COc1cc(OC)c(-c2cn3ccc(N4CCN(CCC(=O)NCCN(C)C)CC4)cc3n2)cc1Cl [Example 158, 3-(4-(2-(5-chloro-2,4-dimethoxyphenyl)imidazo[1,2-a]pyridin-7-yl)piperazin-1-yl)-N-(2-(dimethylamino)ethyl)propanamide]",0.00353 µM,14 µM,7.7 µM,9.8 µM,9.4 µM,9.3 µM,,,,,
"COC(=O)N1CCN(c2ccn3cc(-c4cc(Cl)c(OC)cc4OC)nc3n2)CC1 [Example 159, methyl 4-(2-(5-chloro-2,4-dimethoxyphenyl)imidazo[1,2-a]pyrimidin-7-yl)piperazine-1-carboxylate]",0.0157 µM,3.7 µM,3.4 µM,4.7 µM,3.2 µM,2.7 µM,,,,,
"COc1cc(OCCCN(C)C)c(-c2cn3ccc(N4CCN(S(=O)(=O)C5CC5)CC4)cc3n2)cc1Cl [Example 160, 3-(4-Chloro-2-{7-[4-(cyclopropylsulfonyl)piperazin-1-yl]imidazo[1,2-a]pyridin-2-yl}-5-methoxyphenoxy)-N,N-dimethylpropan-1-amine]",0.0277 µM,2.9 µM,1.5 µM,1.9 µM,1.2 µM,1.4 µM,,,,,
"COc1cc(OC)c(-c2cn3ccc(NC(=O)CNC(=O)OC(C)(C)C)cc3n2)cc1Cl [Example 161, tert-butyl (2-((2-(5-chloro-2,4-dimethoxyphenyl)imidazo[1,2-a]pyridin-7-yl)-amino)-2-oxoethyl)carbamate]",0.0379 µM,7.8 µM,8.4 µM,8.7 µM,7 µM,8.8 µM,,,,,
"COc1cc(OCCCN(C)C)c(-c2cn3ccc(N4CCC(NC(=O)C(C)(C)C)CC4)cc3n2)cc1Cl [Example 162, N-(1-(2-(5-chloro-2-(3-(dimethylamino)propoxy)-4-methoxyphenyl)-imidazo[1,2-a]pyridin-7-yl)piperidin-4-yl)pivalamide]",0.0211 µM,5 µM,2.1 µM,2.1 µM,3.3 µM,2.8 µM,,,,,
"COc1cc(OCCCN(C)C)c(-c2cn3ccc(N4CCC(NS(=O)(=O)C5CC5)CC4)cc3n2)cc1Cl [Example 163, N-(1-(2-(5-chloro-2-(3-(dimethylamino)propoxy)-4-methoxyphenyl)imidazo-[1,2-a]pyridin-7-yl)piperidin-4-yl)cyclopropanesulfonamide]",0.0206 µM,5.6 µM,2.7 µM,3.4 µM,5.9 µM,6.4 µM,,,,,
"COc1cc(OCCCN(C)C)c(-c2cn3ccc(N4CCC(NS(C)(=O)=O)CC4)cc3n2)cc1Cl [Example 164, N-(1-(2-(5-chloro-2-(3-(dimethylamino)propoxy)-4-methoxyphenyl)-imidazo[1,2-a]pyridin-7-yl)piperidin-4-yl)methanesulfonamide]",0.0211 µM,7.2 µM,8.6 µM,8.8 µM,9 µM,10 µM,,,,,
"CCCCCNC1CCN(c2ccn3cc(-c4cc(Cl)c(OC)cc4OCCCN(C)C)nc3c2)CC1 [Example 165, 1-(2-{5-chloro-2-[3-(dimethylamino)propoxy]-4-methoxyphenyl}imidazo-[1,2-a]pyridin-7-yl)-N-pentylpiperidin-4-amine]",0.0593 µM,2.1 µM,1.7 µM,2.2 µM,1.7 µM,2.2 µM,,,,,
"COc1cc(OC)c(-c2cn3ccc(NC(=O)CN)cc3n2)cc1Cl [Example 166, 2-amino-N-(2-(5-chloro-2,4-dimethoxyphenyl)imidazo[1,2-a]pyridin-7-yl)-acetamide]",0.031 µM,,,,,,7.9 µM,22 µM,6.5 µM,6.1 µM,7.1 µM
"COc1cc(OC)c(-c2cn3ccc(N4CCN(CCCN(C)C)C4=O)cc3n2)cc1Cl [Example 167, 1-(2-(5-chloro-2,4-dimethoxyphenyl)imidazo[1,2-a]pyridin-7-yl)-3-(3-(dimethylamino)propyl)imidazolidin-2-one]",0.0124 µM,6.9 µM,6.5 µM,3.9 µM,6.8 µM,6.4 µM,,,,,
"COc1cc(OC)c(-c2cn3ccc(NC(=O)CCN)cc3n2)cc1Cl [Example 168, 3-amino-N-[2-(5-chloro-2,4-dimethoxyphenyl)imidazo[1,2-a]pyridin-7-yl]-propanamide]",0.0283 µM,9.5 µM,2.7 µM,6.2 µM,1.4 µM,39 µM,,,,,
"COc1cc(OC)c(-c2cn3ccc(N4CCN(S(C)(=O)=O)CC4)cc3n2)cc1Cl [Example 169, 2-(5-chloro-2,4-dimethoxyphenyl)-7-[4-(methylsulfonyl)piperazin-1-yl]imidazo[1,2-a]pyridine]",0.0101 µM,2.8 µM,4.7 µM,2.2 µM,2.1 µM,1.8 µM,,,,,
"CCCS(=O)(=O)N1CCN(c2ccn3cc(-c4cc(Cl)c(OC)cc4OC)nc3c2)CC1 [Example 170, 2-(5-chloro-2,4-dimethoxyphenyl)-7-[4-(propylsulfonyl)piperazin-1-yl]imidazo[1,2-a]pyridine]",0.0219 µM,2.6 µM,1.9 µM,1.6 µM,2.1 µM,1.7 µM,,,,,
"COc1cc(OC)c(-c2cn3ccc(N4CCN(S(=O)(=O)N(C)C)CC4)cc3n2)cc1Cl [Example 171, 4-[2-(5-chloro-2,4-dimethoxyphenyl)imidazo[1,2-a]pyridin-7-yl]-N,N-dimethylpiperazine-1-sulfonamide]",0.0135 µM,0.84 µM,1.2 µM,2 µM,0.94 µM,0.83 µM,,,,,
"CCS(=O)(=O)N1CCN(c2ccn3cc(-c4cc(Cl)c(OC)cc4OC)nc3c2)CC1 [Example 172, 2-(5-chloro-2,4-dimethoxyphenyl)-7-[4-(ethylsulfonyl)piperazin-1-yl]imidazo[1,2-a]pyridine]",0.0125 µM,1.8 µM,1.8 µM,1.6 µM,1.2 µM,1.9 µM,,,,,
"CCS(=O)(=O)NC1CCN(c2ccn3cc(-c4cc(Cl)c(OC)cc4OC)nc3c2)CC1 [Example 173, N-{1-[2-(5-chloro-2,4-dimethoxyphenyl)imidazo[1,2-a]pyridin-7-yl]piperidin-4-yl}ethanesulfonamide]",0.00961 µM,0.99 µM,0.53 µM,1.6 µM,1.9 µM,1.5 µM,,,,,
"CCCS(=O)(=O)NC1CCN(c2ccn3cc(-c4cc(Cl)c(OC)cc4OC)nc3c2)CC1 [Example 174, N-{1-[2-(5-chloro-2,4-dimethoxyphenyl)imidazo[1,2-a]pyridin-7-yl]piperidin-4-yl}propane-1-sulfonamide]",0.0104 µM,2 µM,1.7 µM,2.3 µM,1.8 µM,3 µM,,,,,
"COc1cc(OC)c(-c2cn3ccc(N4CCC(NS(=O)(=O)Cc5ccccc5)CC4)cc3n2)cc1Cl [Example 175, N-{1-[2-(5-chloro-2,4-dimethoxyphenyl)imidazo[1,2-a]pyridin-7-yl]piperidin-4-yl}-1-phenylmethanesulfonamide]",0.0263 µM,2 µM,1.9 µM,1.8 µM,1.5 µM,2 µM,,,,,
"COc1cc(OC)c(-c2cn3ccc(N4CCC(NS(=O)(=O)C(F)(F)F)CC4)cc3n2)cc1Cl [Example 176, N-{1-[2-(5-chloro-2,4-dimethoxyphenyl)imidazo[1,2-a]pyridin-7-yl]piperidin-4-yl}-1,1,1-trifluoromethanesulfonamide]",0.0641 µM,0.53 µM,0.36 µM,0.75 µM,0.55 µM,0.51 µM,,,,,
